{"source": "patent US20060275333A1", "about": "“Composition with beads for treatment of contact dermatitis” (Humco Holding Group, Inc., priority 2005, published 2006)", "key": {"[1]": {"tested_on": "IL-6", "experiment": "IL-6 release from Epiderm artificial skin, ELISA of culture media", "assay_type": "cell-based, human", "source_text": "(§1) When urushiol is applied to human skin it can elicit the synthesis and release of several key inflammatory cytokines, including IL-1α, IL-1β, IL-6, and IL-8. Release of these cytokines also has been noted in cultured keratinocyte models after the application of urushiol. IL-1α and IL-6 are synthesized and stored in keratinocytes and have been identified as mediators of skin irritation and inflammation. Release of these two cytokines can be measured directly in tissue culture media by a calorimetric enzyme linked immunosorbent assay (ELISA). In such measurements, antibodies covalently linked to a solid support will bind any IL-1α or IL-6 present in spent culture media samples. A second antibody that is covalently attached to an acetylcholinesterase enzyme will in turn detect the bound cytokines. Upon addition of an appropriate color substrate the acetylcholinesterase enzyme will in turn detect the bound cytokines. Upon addition of an appropriate color substrate the acetylcholinesterase enzyme will generate a colored end product that can be measured spectrophotometrically.\nTesting of the invention herein was conducted using an artificial skin product designed for toxicity testing and sold under the name Epiderm® by Mat Tek Corporation of Ashland, Massachusetts. This artificial skin product consists of normal human-derived epidermal keratinocytes that have been cultured to form a multilayered, highly differentiated model of the human epidermis. […] Markers of mature epidermis specific differentiation such as profilaggrin, the K1/K10 cytokeratin pair, involucrin, and type I epidermal transglutaminase have been localized in this product. The product is also mitotically and metabolically active.\nThe Epidermic tissue samples were stored at 2-8° C. until used. The analyses were conducted with an ELISA test kit from Cayman Chemicals of Ann Arbor, Michigan, with all buffers and reagents being prepared according to the kit's instructions and allowed to come to room temperature. Prior to use, the tissues were removed from the agarose shipping tray and placed into a 6-well plate containing 1.0 ml of assay medium from the test kit, at 37±2° C. The tissues were allowed to incubate for one hour at 37±2° C. and 5±1% CO2. After this initial incubation, the assay medium was replaced with 1 ml of fresh medium at 37±2° C. […] The collected culture media were stored at −75±5° C. until analyzed for IL-1α and IL-6 levels. The IL-1α and IL-6 levels were determined by comparison with a standard curve generated from samples having known concentrations of these two cytokines. […] Absorbance values for the test materials and untreated samples were then used to estimate the amount of cytokine present in each sample."}, "[2]": {"tested_on": "IL-1α", "experiment": "IL-1α release from Epiderm artificial skin, ELISA of culture media", "assay_type": "cell-based, human", "source_text": "as §1, with “A second antibody that is covalently attached to an acetylcholinesterase enzyme will in turn detect the bound cytokines. Upon addition of an appropriate color substrate the acetylcholinesterase enzyme will in turn detect the bound cytokines.” left out, “spectrophotometrically. […]” for “spectrophotometrically.”\nThe Epidermic tissue samples were stored at 2-8° C. until used. […] The collected culture media were stored at −75±5° C. until analyzed for IL-1α and IL-6 levels. The IL-1α and IL-6 levels were determined by comparison with a standard curve generated from samples having known concentrations of these two cytokines. […] Absorbance values for the test materials and untreated samples were then used to estimate the amount of cytokine present in each sample."}, "[3]": {"tested_on": "Epiderm normal human-derived epidermal keratinocytes", "experiment": "MTT assay of tissue viability of Epiderm artificial skin", "assay_type": "cell-based", "conditions": "after the 48-hour time period; untreated tissues = 100%; same test materials", "experimental": "The efficacy of nonylphenol ethoxylate on urushiol-induced dermatitis was evaluated by ELISA and MTT techniques. The MTT evaluation was based on a technique first described in Mosmann, T., “Rapid calorimetric assay for cellular growth and survival: application to proliferation and cytotoxicity assays,” J. Immunol. Methods, Dec. 16, 1983, 65(1-2):55-63. The analysis is based on the compound [3-(4,5-dimethylthiazol-2-yl)-2,5-diphenyltetrazolium bromide], commonly referred to as MTT. As reported by Mosmann, mitochondrial dehydrogenase enzyme from viable cells can cleave the tetrazolium rings of the pale yellow MTT and form dark blue formazin crystals. The crystals cannot permeate cell membranes, and thus tend to accumulate within healthy cells. […] The formazin is extracted with isopropanol and measured spectrophotometrically. […]\nEpidermal irritation often is associated with a loss of viable ketinocytes. Therefore, changes in tissue viability after exposure to urushiol and the test were assessed using the MTT assay described above. […] After the extraction, a 200 μl sample from each well of the isopropanol/MTT mixture was transferred to a 96-well plate and the absorbance of the sample was read at 540 nm with a plate reader using 200 μl of isopropanol as the blank.\nThe mean MTT absorbance value for the untreated tissues was calculated and used to represent 100% tissue viability. […]"}, "[4]": {"conditions": "exposed to 50 micrograms of purified urushiol; cited from earlier work"}, "[5]": {"conditions": "4 Hours, Epiderm tissue, 100 μl test material, Urushiol = control lotion 0.05% 2-deoxy-urushiol, Nonylphenol Ethoxylate = control lotion + 0.2% w/v nonyl phenyl ethoxylate"}}}
{"smiles": "CCCCCCCCCCCCCCCc1cccc(O)c1O", "note": "[Urushiol]", "values": [{"measurement": "IL-6 Accumulation in Cell Culture Media", "setting": "[1]; [5]", "result": "1.9 ± 0.4", "unit": "pg/mL"}, {"measurement": "IL-6 Accumulation in Cell Culture Media", "setting": "[1]; 12 Hours, same test materials", "result": "5.1 ± 0.4", "unit": "pg/mL"}, {"measurement": "IL-6 Accumulation in Cell Culture Media", "setting": "[1]; 24 Hours, same test materials", "result": "9.4 ± 0.3", "unit": "pg/mL"}, {"measurement": "IL-6 Accumulation in Cell Culture Media", "setting": "[1]; 48 Hours, same test materials", "result": "16.4 ± 1.4", "unit": "pg/mL"}, {"measurement": "IL-1α Accumulation in Cell Culture Media", "setting": "[2]; [5]", "result": "16.1 ± 5.2", "unit": "pg/mL"}, {"measurement": "IL-1α Accumulation in Cell Culture Media", "setting": "[2]; 12 Hours, same test materials", "result": "32.6 ± 6.3", "unit": "pg/mL"}, {"measurement": "Percent Viability (MTT Assay)", "setting": "[3]", "result": "88 ± 5", "unit": "%"}, {"measurement": "adult Americans who get a rash", "setting": "[4]", "result": "80-90%"}]}
